In patent publication US12415834B2, “GhR-binding peptide and composition comprising same” (priority 2021, dated 2025):
Like-named read-outs stand apart in the source and are kept apart here. Starred links: 1 amine or outer side, 2 acyl side, 3 side chain; linkers in the order of their positions; H or OH if unused. Positions of bridges follow the written chain, without caps; N, C: chain ends. Non-standard residues stand in square brackets, D forms with d. Residues, ends and D or L forms follow the SMILES beside them. Groups on a side chain read outwards from the residue. *: point of attachment. X12 = NC(=O)[C@H](CCCCN*)NC(=O)CC[C@H](NC(=O)CC[C@H](NC(=O)CCCc1ccc(-c2ccccc2)cc1)C(=O)O)C(=O)O; X3 = NC(=O)[C@H](CCCCN*)NC(=O)CC[C@H](NC(=O)CC[C@H](NC(=O)CCCCCCCCCCCCCCC(=O)O)C(=O)O)C(=O)O; X19 = Cc1ccc(CCCC(=O)N[C@@H](CCC(=O)N[C@@H](CCC(=O)N[C@@H](CCCCN*)C(N)=O)C(=O)O)C(=O)O)cc1; X10 = NC(=O)[C@H](CCCCN*)NC(=O)CC[C@H](NC(=O)CC[C@H](NC(=O)CCCc1ccc(I)cc1)C(=O)O)C(=O)O; X5 = NC(=O)[C@H](CCCCN*)NC(=O)CC[C@H](NC(=O)CC[C@H](NC(=O)CCCCCc1ccccc1)C(=O)O)C(=O)O; X18 = NC(=O)[C@H](CCCCN*)NC(=O)CC[C@H](NC(=O)CC[C@H](NC(=O)CCCc1ccccc1)C(=O)O)C(=O)O; X17 = NC(=O)[C@H](CCCCN*)NC(=O)CC[C@H](NC(=O)CCCc1ccc(I)cc1)C(=O)O; Trp(1-CH2CO) = O=C([C@H](Cc1cn(CC(=O)[*:3])c2ccccc12)N[*:1])[*:2]; Trp(5-OH) = N[C@@H](Cc1c[nH]c2ccc(O)cc12)C(=O)O; Phe(4-COOH) = N[C@@H](Cc1ccc(C(=O)O)cc1)C(=O)O; Piperazinyl(4-CH2COOH) = O=C(O)CN1CCN(*)CC1; X2 = O=C([C@@H]1CCCN1[*:2])[*:1]; hArg = N=C(N)NCCCC[C@H](N)C(=O)O; NMeK = CN[C@@H](CCCCN)C(=O)O; X16 = CN(CC(=O)[*:1])[*:2]; X4 = O=C(CN[*:2])[*:1]; Aib = CC(C)(N)C(=O)O; CO = O=C([*:1])[*:2]

Biological target: T1, Recombinant human GhR-Fc protein (Homo sapiens, UniProt P10912)
T1 construct: purchased R&D Systems
Experiment: SPR binding assay (Biacore T200, single-cycle kinetics) of peptides against immobilized human GhR-Fc
Method: SPR assay was performed using Biacore T200 (cytiva: Former GE Healthcare). After the equilibration of Series S Sensor Chip CM5 (produced by cytiva: Former GE Healthcare) with Running Buffer (HBS-EP with 1% (v/v) DMSO), an EDC/NHS mixture was injected at a flow rate of 10 μL/min for 7 minutes to thereby activate the functional groups on sensor chip. Recombinant human GhR-Fc protein (R&D Systems) in 10 mM Acetate (pH 4.0) was injected immobilized to at a flow rate of 5 μL/min. It took 7 minutes to immobilize the GhR on the substrate surfaces of the sensor chip. Then Ethanolamine was injected at a flow rate of 10 μL/min for 7 minutes. 1M Ethanolamine (aq.) was injected at a flow rate of 10 μL/min for 420 seconds for capping.
Using these Peptide Samples, kinetics of peptides against human GhR-Fc protein were measured. The method adopted for sample measurement was a single-cycle kinetics method. The analysis was conducted using the evaluation software provided with Biacore T200. A DMSO correction curve obtained by solvent correction measurements was applied for the analysis. Kinetics fitting was done on the difference data obtained by subtracting the baseline data from sample measurement data. KD values were calculated based on the association rate constant (ka) and dissociation rate constant (kd). […]

[1] = SPR, hGhR, Table 1 bicyclic peptides, KD calculated from ka and kd, read-out: KD

T1 sequence (P10912 with tags, fused parts or gaps limits assumed): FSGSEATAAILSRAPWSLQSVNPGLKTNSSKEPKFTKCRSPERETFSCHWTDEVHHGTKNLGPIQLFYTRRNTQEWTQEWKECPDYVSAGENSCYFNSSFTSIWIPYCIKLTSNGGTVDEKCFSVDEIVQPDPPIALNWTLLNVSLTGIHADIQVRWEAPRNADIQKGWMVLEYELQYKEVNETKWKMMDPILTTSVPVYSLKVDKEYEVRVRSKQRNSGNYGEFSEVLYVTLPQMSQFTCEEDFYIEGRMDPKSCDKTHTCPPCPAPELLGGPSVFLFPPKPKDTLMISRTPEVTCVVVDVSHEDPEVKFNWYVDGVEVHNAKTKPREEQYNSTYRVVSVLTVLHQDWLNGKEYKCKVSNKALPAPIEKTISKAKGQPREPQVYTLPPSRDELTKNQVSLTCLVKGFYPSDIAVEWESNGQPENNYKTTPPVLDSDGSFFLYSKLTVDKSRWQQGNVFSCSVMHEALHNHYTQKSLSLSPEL

Row | Compound | Kd [1] [nM] | Kd [nM]
1 | CC(C)[C@@H]1NC(=O)[C@H](C(C)C)NC(=O)[C@@H]2CCCCNC(=O)Cn3cc(c4ccccc43)C[C@H](NC(=O)[C@H](CC(N)=O)NC(=O)[C@H](CO)NC1=O)C(=O)N[C@@H](Cc1ccc(O)cc1)C(=O)N[C@@H](CCCCN)C(=O)N[C@@H](Cc1c[nH]c3ccc(O)cc13)C(=O)NC(C)(C)C(=O)N[C@@H](C(C)C)C(=O)N[C@H](C(=O)NCC(N)=O)CSCC(=O)N[C@@H](Cc1ccc(O)cc1)C(=O)N2C [Compound 1] ({CH2CO}-Y[NMeK]VVSN[Trp(1-CH2CO)]YK[Trp(5-OH)][Aib]VCG-NH2; lactam 2-7; thioether N-13; C-terminus assumed) | 0.7 | 
2 | CC(C)[C@@H]1NC(=O)[C@H](C(C)C)NC(=O)[C@@H]2CCCCNC(=O)CNC(=O)Cn3cc(c4ccccc43)C[C@H](NC(=O)[C@H](CC(N)=O)NC(=O)[C@H](CO)NC1=O)C(=O)N[C@@H](Cc1ccc(O)cc1)C(=O)N[C@@H](CCCCN)C(=O)N[C@@H](Cc1c[nH]c3ccc(O)cc13)C(=O)NC(C)(C)C(=O)N[C@@H](C(C)C)C(=O)N[C@H](C(=O)NCC(N)=O)CSCC(=O)N[C@@H](Cc1ccc(O)cc1)C(=O)N2C [Compound 2] ({CH2CO}-Y[NMeK]VVSN[Trp(1-CH2CO)]YK[Trp(5-OH)][Aib]VCG-NH2; linker 2-7 via X4; thioether N-13; C-terminus assumed) | 1.22 | 
3 | CC(C)[C@@H]1NC(=O)[C@H](C(C)C)NC(=O)[C@@H]2CCCCNC(=O)CN(C)C(=O)Cn3cc(c4ccccc43)C[C@H](NC(=O)[C@H](CC(N)=O)NC(=O)[C@H](CO)NC1=O)C(=O)N[C@@H](Cc1ccc(O)cc1)C(=O)N[C@@H](CCCCN)C(=O)N[C@@H](Cc1c[nH]c3ccc(O)cc13)C(=O)NC(C)(C)C(=O)N[C@@H](C(C)C)C(=O)N[C@H](C(=O)NCC(N)=O)CSCC(=O)N[C@@H](Cc1ccc(O)cc1)C(=O)N2C [Compound 3] ({CH2CO}-Y[NMeK]VVSN[Trp(1-CH2CO)]YK[Trp(5-OH)][Aib]VCG-NH2; linker 2-7 via X16; thioether N-13) | 1.71 | 
4 | CC(C)[C@@H]1NC(=O)[C@H](C(C)C)NC(=O)[C@@H]2CCCCNC(=O)[C@@H]3CCCN3C(=O)Cn3cc(c4ccccc43)C[C@H](NC(=O)[C@H](CC(N)=O)NC(=O)[C@H](CO)NC1=O)C(=O)N[C@@H](Cc1ccc(O)cc1)C(=O)N[C@@H](CCCCN)C(=O)N[C@@H](Cc1c[nH]c3ccc(O)cc13)C(=O)NC(C)(C)C(=O)N[C@@H](C(C)C)C(=O)N[C@H](C(=O)NCC(N)=O)CSCC(=O)N[C@@H](Cc1ccc(O)cc1)C(=O)N2C [Compound 4] ({CH2CO}-Y[NMeK]VVSN[Trp(1-CH2CO)]YK[Trp(5-OH)][Aib]VCG-NH2; linker 2-7 via X2; thioether N-13) | 1.07 | 
5 | CC(C)[C@@H]1NC(=O)[C@H](C(C)C)NC(=O)[C@@H]2CCCCNC(=O)Cn3cc(c4ccccc43)C[C@H](NC(=O)[C@H](CC(N)=O)NC(=O)[C@H](CO)NC1=O)C(=O)N[C@@H](Cc1ccc(C(=O)O)cc1)C(=O)N[C@@H](CCCCNC(=N)N)C(=O)N[C@@H](Cc1c[nH]c3ccc(O)cc13)C(=O)NC(C)(C)C(=O)N[C@@H](C(C)C)C(=O)N[C@H](C(=O)NCCCC[C@H](NC(=O)CC[C@H](NC(=O)CC[C@H](NC(=O)CCCc1ccc(I)cc1)C(=O)O)C(=O)O)C(N)=O)CSCC(=O)N[C@@H](Cc1ccc(C(=O)O)cc1)C(=O)N2C [Compound 7] ({CH2CO}-[Phe(4-COOH)][NMeK]VVSN[Trp(1-CH2CO)][Phe(4-COOH)][hArg][Trp(5-OH)][Aib]VC-X10; lactam 2-7; thioether N-13) | 0.96 | 
6 | CC(C)[C@@H]1NC(=O)[C@H](C(C)C)NC(=O)[C@@H]2CCCCNC(=O)Cn3cc(c4ccccc43)C[C@H](NC(=O)[C@H](CC(N)=O)NC(=O)[C@H](CO)NC1=O)C(=O)N[C@@H](Cc1ccc(C(=O)O)cc1)C(=O)N[C@@H](CCCCN)C(=O)N[C@@H](Cc1c[nH]c3ccc(O)cc13)C(=O)NC(C)(C)C(=O)N[C@@H](C(C)C)C(=O)N[C@H](C(=O)NCCCC[C@H](NC(=O)CC[C@H](NC(=O)CC[C@H](NC(=O)CCCc1ccccc1)C(=O)O)C(=O)O)C(N)=O)CSCC(=O)N[C@@H](Cc1ccc(C(=O)O)cc1)C(=O)N2C [Compound 10] ({CH2CO}-[Phe(4-COOH)][NMeK]VVSN[Trp(1-CH2CO)][Phe(4-COOH)]K[Trp(5-OH)][Aib]VC-X18; lactam 2-7; thioether N-13) | 2.03 | 
7 | CC(C)[C@@H]1NC(=O)[C@H](C(C)C)NC(=O)[C@@H]2CCCCNC(=O)Cn3cc(c4ccccc43)C[C@H](NC(=O)[C@H](CC(N)=O)NC(=O)[C@H](CO)NC1=O)C(=O)N[C@@H](Cc1ccc(C(=O)O)cc1)C(=O)N[C@@H](CCCCN)C(=O)N[C@@H](Cc1c[nH]c3ccc(O)cc13)C(=O)NC(C)(C)C(=O)N[C@@H](C(C)C)C(=O)N[C@H](C(=O)NCCCC[C@H](NC(=O)CC[C@H](NC(=O)CC[C@H](NC(=O)CCCCCCCCCCCCCCC(=O)O)C(=O)O)C(=O)O)C(N)=O)CSCC(=O)N[C@@H](Cc1ccc(C(=O)O)cc1)C(=O)N2C [Compound 11] ({CH2CO}-[Phe(4-COOH)][NMeK]VVSN[Trp(1-CH2CO)][Phe(4-COOH)]K[Trp(5-OH)][Aib]VC-X3; lactam 2-7; thioether N-13) | 2.85 | 
8 | Cc1ccc(CCCC(=O)N[C@@H](CCC(=O)N[C@@H](CCC(=O)N[C@@H](CCCCNC(=O)[C@@H]2CSCC(=O)N[C@@H](Cc3ccc(C(=O)O)cc3)C(=O)N(C)[C@H]3CCCCNC(=O)Cn4cc(c5ccccc54)C[C@H](NC(=O)[C@H](CC(N)=O)NC(=O)[C@H](CO)NC(=O)[C@H](C(C)C)NC(=O)[C@H](C(C)C)NC3=O)C(=O)N[C@@H](Cc3ccc(C(=O)O)cc3)C(=O)N[C@@H](CCCCN)C(=O)N[C@@H](Cc3c[nH]c4ccc(O)cc34)C(=O)NC(C)(C)C(=O)N[C@@H](C(C)C)C(=O)N2)C(N)=O)C(=O)O)C(=O)O)cc1 [Compound 12] ({CH2CO}-[Phe(4-COOH)][NMeK]VVSN[Trp(1-CH2CO)][Phe(4-COOH)]K[Trp(5-OH)][Aib]VC-X19; lactam 2-7; thioether N-13) | 1.95 | 
9 | CC(C)[C@@H]1NC(=O)[C@H](C(C)C)NC(=O)[C@@H]2CCCCNC(=O)Cn3cc(c4ccccc43)C[C@H](NC(=O)[C@H](CC(N)=O)NC(=O)[C@H](CO)NC1=O)C(=O)N[C@@H](Cc1ccc(C(=O)O)cc1)C(=O)N[C@@H](CCCCN)C(=O)N[C@@H](Cc1c[nH]c3ccc(O)cc13)C(=O)NC(C)(C)C(=O)N[C@@H](C(C)C)C(=O)N[C@H](C(=O)NCCCC[C@H](NC(=O)CC[C@H](NC(=O)CCCc1ccc(I)cc1)C(=O)O)C(N)=O)CSCC(=O)N[C@@H](Cc1ccc(C(=O)O)cc1)C(=O)N2C [Compound 13] ({CH2CO}-[Phe(4-COOH)][NMeK]VVSN[Trp(1-CH2CO)][Phe(4-COOH)]K[Trp(5-OH)][Aib]VC-X17; lactam 2-7; thioether N-13) | 1.36 | 
10 | CC(C)[C@@H]1NC(=O)[C@H](C(C)C)NC(=O)[C@@H]2CCCCNC(=O)Cn3cc(c4ccccc43)C[C@H](NC(=O)[C@H](CC(N)=O)NC(=O)[C@H](CO)NC1=O)C(=O)N[C@@H](Cc1ccc(C(=O)O)cc1)C(=O)N[C@@H](CCCCN)C(=O)N[C@@H](Cc1c[nH]c3ccc(O)cc13)C(=O)NC(C)(C)C(=O)N[C@@H](C(C)C)C(=O)N[C@H](C(=O)NCCCC[C@H](NC(=O)CC[C@H](NC(=O)CC[C@H](NC(=O)CCCc1ccc(-c3ccccc3)cc1)C(=O)O)C(=O)O)C(N)=O)CSCC(=O)N[C@@H](Cc1ccc(C(=O)O)cc1)C(=O)N2C [Compound 15] ({CH2CO}-[Phe(4-COOH)][NMeK]VVSN[Trp(1-CH2CO)][Phe(4-COOH)]K[Trp(5-OH)][Aib]VC-X12; lactam 2-7; thioether N-13) |  | 1.61
11 | CC(C)[C@@H]1NC(=O)[C@H](C(C)C)NC(=O)[C@@H]2CCCCNC(=O)Cn3cc(c4ccccc43)C[C@H](NC(=O)[C@H](CC(N)=O)NC(=O)[C@H](CO)NC1=O)C(=O)N[C@@H](Cc1ccc(C(=O)O)cc1)C(=O)N[C@@H](CCCCN)C(=O)N[C@@H](Cc1c[nH]c3ccc(O)cc13)C(=O)NC(C)(C)C(=O)N[C@@H](C(C)C)C(=O)N[C@H](C(=O)NCCCC[C@H](NC(=O)CC[C@H](NC(=O)CC[C@H](NC(=O)CCCCCc1ccccc1)C(=O)O)C(=O)O)C(N)=O)CSCC(=O)N[C@@H](Cc1ccc(C(=O)O)cc1)C(=O)N2C [Compound 16] ({CH2CO}-[Phe(4-COOH)][NMeK]VVSN[Trp(1-CH2CO)][Phe(4-COOH)]K[Trp(5-OH)][Aib]VC-X5; lactam 2-7; thioether N-13) | 1.93 | 
12 | CC(C)[C@@H]1NC(=O)[C@H](C(C)C)NC(=O)[C@@H]2CCCCNC(=O)Cn3cc(c4ccccc43)C[C@H](NC(=O)[C@H](CC(N)=O)NC(=O)[C@H](CO)NC1=O)C(=O)N[C@@H](Cc1ccc(O)cc1)C(=O)N[C@@H](CCCCNC(=O)N1CCN(CC(=O)O)CC1)C(=O)N[C@@H](Cc1c[nH]c3ccc(O)cc13)C(=O)NC(C)(C)C(=O)N[C@@H](C(C)C)C(=O)N[C@H](C(=O)NCCCC[C@H](NC(=O)CC[C@H](NC(=O)CC[C@H](NC(=O)CCCCCCCCCCCCCCC(=O)O)C(=O)O)C(=O)O)C(N)=O)CSCC(=O)N[C@@H](Cc1ccc(C(=O)O)cc1)C(=O)N2C [Compound 17] ({CH2CO}-[Phe(4-COOH)][NMeK]VVSN[Trp(1-CH2CO)]YK([CO-Piperazinyl(4-CH2COOH)])[Trp(5-OH)][Aib]VC-X3; lactam 2-7; thioether N-13) | 4.1 | 
